Reference: PubChem BioAssay (NCI)
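Grown in 96-well plates, cells were treated for 48 hours with each compound at five concentrations. Insufficient inhibition: endpoint recorded as highest concentration tested. TGI is the concentration that stops growth completely.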

Experiments:
Experiment in all cases: NCI tumour cell line growth inhibition, 48 h
786-0 renal = test system: 786-0 renal
A498 renal = test system: A498 renal
A549 NSCLC = test system: A549 NSCLC
ACHN renal = test system: ACHN renal
BT-549 breast = test system: BT-549 breast
CAKI-1 renal = test system: CAKI-1 renal
CCRF-CEM leukemia = test system: CCRF-CEM leukemia
COLO 205 colon = test system: COLO 205 colon
DU-145 prostate = test system: DU-145 prostate
EKVX NSCLC = test system: EKVX NSCLC
HCC-2998 colon = test system: HCC-2998 colon
HCT-116 colon = test system: HCT-116 colon
HCT-15 colon = test system: HCT-15 colon
HL-60(TB) leukemia = test system: HL-60(TB) leukemia
HOP-62 NSCLC = test system: HOP-62 NSCLC
HOP-92 NSCLC = test system: HOP-92 NSCLC
HS 578T breast = test system: HS 578T breast
HT29 colon = test system: HT29 colon
IGROV1 ovarian = test system: IGROV1 ovarian
K-562 leukemia = test system: K-562 leukemia
KM12 colon = test system: KM12 colon
LOX IMVI melanoma = test system: LOX IMVI melanoma
M14 melanoma = test system: M14 melanoma
MALME-3M melanoma = test system: MALME-3M melanoma
MCF7 breast = test system: MCF7 breast
MDA-MB-231 breast = test system: MDA-MB-231 breast
MDA-MB-435 = test system: MDA-MB-435
MDA-N = test system: MDA-N
MOLT-4 leukemia = test system: MOLT-4 leukemia
NCI-H226 lung = test system: NCI-H226 lung
NCI-H23 lung = test system: NCI-H23 lung
NCI-H460 lung = test system: NCI-H460 lung
NCI-H522 lung = test system: NCI-H522 lung
NCI/ADR-RES ovarian = test system: NCI/ADR-RES ovarian
OVCAR-3 ovarian = test system: OVCAR-3 ovarian
OVCAR-4 ovarian = test system: OVCAR-4 ovarian
OVCAR-5 ovarian = test system: OVCAR-5 ovarian
OVCAR-8 ovarian = test system: OVCAR-8 ovarian
PC-3 prostate = test system: PC-3 prostate
RPMI-8226 leukemia = test system: RPMI-8226 leukemia
SF-268 CNS = test system: SF-268 CNS
SF-295 CNS = test system: SF-295 CNS
SK-MEL-2 melanoma = test system: SK-MEL-2 melanoma
SK-MEL-28 melanoma = test system: SK-MEL-28 melanoma
SK-MEL-5 melanoma = test system: SK-MEL-5 melanoma
SK-OV-3 ovarian = test system: SK-OV-3 ovarian
SN12C renal = test system: SN12C renal
SNB-19 CNS = test system: SNB-19 CNS
SR leukemia = test system: SR leukemia
SW-620 colon = test system: SW-620 colon
TK-10 renal = test system: TK-10 renal
U251 CNS = test system: U251 CNS
UACC-257 melanoma = test system: UACC-257 melanoma
UACC-62 melanoma = test system: UACC-62 melanoma
UO-31 renal = test system: UO-31 renal
RXF 393 renal = test system: RXF 393 renal
SF-539 CNS = test system: SF-539 CNS
SNB-75 CNS = test system: SNB-75 CNS

CSc1nc(NC(C)C)c2c(n1)Sc1nc3ccccc3n1N=C2
TGI (786-0 renal): 16.7 µM
TGI (A498 renal): 12.6 µM
TGI (A549 NSCLC): 38.6 µM
TGI (ACHN renal): 20.9 µM
TGI (BT-549 breast): > 100 µM
TGI (CAKI-1 renal): > 100 µM
TGI (CCRF-CEM leukemia): > 100 µM
TGI (COLO 205 colon): > 100 µM
TGI (DU-145 prostate): 31.3 µM
TGI (EKVX NSCLC): > 100 µM
TGI (HCC-2998 colon): 25.3 µM
TGI (HCT-116 colon): 21.5 µM
TGI (HCT-15 colon): > 100 µM
TGI (HL-60(TB) leukemia): > 100 µM
TGI (HOP-62 NSCLC): 22.2 µM
TGI (HOP-92 NSCLC): 31.2 µM
TGI (HS 578T breast): 54.5 µM
TGI (HT29 colon): > 100 µM
TGI (IGROV1 ovarian): > 100 µM
TGI (K-562 leukemia): > 100 µM
TGI (KM12 colon): 60.9 µM
TGI (LOX IMVI melanoma): > 100 µM
TGI (M14 melanoma): > 100 µM
TGI (MALME-3M melanoma): 38 µM
TGI (MCF7 breast): 60 µM
TGI (MDA-MB-231 breast): 30.2 µM
TGI (MDA-MB-435): 70.3 µM
TGI (MDA-N): > 100 µM
TGI (MOLT-4 leukemia): > 100 µM
TGI (NCI-H226 lung): > 100 µM
TGI (NCI-H23 lung): 38.7 µM
TGI (NCI-H460 lung): 79.5 µM
TGI (NCI-H522 lung): 50.5 µM
TGI (NCI/ADR-RES ovarian): 46.7 µM
TGI (OVCAR-3 ovarian): 25.1 µM
TGI (OVCAR-4 ovarian): 22.5 µM
TGI (OVCAR-5 ovarian): > 100 µM
TGI (OVCAR-8 ovarian): 28.8 µM
TGI (PC-3 prostate): > 100 µM
TGI (RPMI-8226 leukemia): > 100 µM
TGI (SF-268 CNS): > 100 µM
TGI (SF-295 CNS): 24.1 µM
TGI (SK-MEL-2 melanoma): 47.3 µM
TGI (SK-MEL-28 melanoma): > 100 µM
TGI (SK-MEL-5 melanoma): 23.9 µM
TGI (SK-OV-3 ovarian): 28.2 µM
TGI (SN12C renal): 35.4 µM
TGI (SNB-19 CNS): 39 µM
TGI (SR leukemia): > 100 µM
TGI (SW-620 colon): 35.3 µM
TGI (TK-10 renal): 36.8 µM
TGI (U251 CNS): 29.9 µM
TGI (UACC-257 melanoma): > 100 µM
TGI (UACC-62 melanoma): 23.6 µM
TGI (UO-31 renal): 25.6 µM

CC(C)(C)OC(=O)NC(Cc1ccccc1)NC(=O)NC(=O)OCc1ccccc1 (stereo not given)
TGI (786-0 renal): > 100 µM
TGI (A549 NSCLC): > 100 µM
TGI (ACHN renal): > 100 µM
TGI (BT-549 breast): > 100 µM
TGI (CAKI-1 renal): 64.1 µM
TGI (DU-145 prostate): > 100 µM
TGI (EKVX NSCLC): > 100 µM
TGI (HCC-2998 colon): > 100 µM
TGI (HCT-116 colon): > 100 µM
TGI (HCT-15 colon): > 100 µM
TGI (HOP-62 NSCLC): > 100 µM
TGI (HS 578T breast): > 100 µM
TGI (HT29 colon): > 100 µM
TGI (IGROV1 ovarian): > 100 µM
TGI (K-562 leukemia): > 100 µM
TGI (KM12 colon): > 100 µM
TGI (M14 melanoma): > 100 µM
TGI (MALME-3M melanoma): > 100 µM
TGI (MCF7 breast): > 100 µM
TGI (MDA-MB-435): > 100 µM
TGI (MDA-N): > 100 µM
TGI (MOLT-4 leukemia): > 100 µM
TGI (NCI-H226 lung): > 100 µM
TGI (NCI-H23 lung): > 100 µM
TGI (NCI-H460 lung): > 100 µM
TGI (NCI-H522 lung): > 100 µM
TGI (NCI/ADR-RES ovarian): > 100 µM
TGI (OVCAR-3 ovarian): > 100 µM
TGI (OVCAR-5 ovarian): > 100 µM
TGI (OVCAR-8 ovarian): > 100 µM
TGI (PC-3 prostate): > 100 µM
TGI (RPMI-8226 leukemia): > 100 µM
TGI (RXF 393 renal): 69.2 µM
TGI (SF-268 CNS): > 100 µM
TGI (SF-295 CNS): > 100 µM
TGI (SF-539 CNS): 60.8 µM
TGI (SK-MEL-2 melanoma): > 100 µM
TGI (SK-MEL-28 melanoma): > 100 µM
TGI (SK-MEL-5 melanoma): > 100 µM
TGI (SK-OV-3 ovarian): > 100 µM
TGI (SN12C renal): > 100 µM
TGI (SNB-19 CNS): > 100 µM
TGI (SNB-75 CNS): 73.2 µM
TGI (SR leukemia): > 100 µM
TGI (SW-620 colon): > 100 µM
TGI (TK-10 renal): > 100 µM
TGI (U251 CNS): > 100 µM
TGI (UACC-257 melanoma): > 100 µM
TGI (UACC-62 melanoma): > 100 µM
TGI (UO-31 renal): > 100 µM
